Values after ≈ are worked out from the molar mass of the structure shown. Read-outs that look alike come from different tables or passages of the source.
How the values were obtained:
[1] = test system: E. coli MG1655; experiment: Accumulation assay in whole-cell E. coli, LC-MS/MS quantification; details: for accumulation in E. coli (in words): E. coli whole cells; for accumulation in E. coli (in words) / accumulation in E. coli: 50 μM compound, 10 minutes; for accumulation in E. coli: E. coli MG1655 whole cells, 37° C., LC-MS/MS; for accumulation upon co-treatment with colistin: E. coli, 6.0 μM colistin sulfate added before compound
Text: Antimicrob. Agents Chemother. 36, 2622-2627, (1992); Davis, T. D., Gerry, C. J. & Tan, D. S. General platform for systematic quantitative evaluation of small-molecule permeability in bacteria. ACS Chem. Biol. 9, 2535-2544, (2014); and Cai, H., Rose, K., Liang, L. H., Dunham, S. & Stover, C. Development of a liquid chromatography/mass spectrometry-based drug accumulation assay in Pseudomonas aeruginosa. Anal. Biochem. 385, 321-325, (2009); with LC-MS/MS used to quantify the accumulation of each compound. E. coli MG1655 was utilized for these experiments as this strain has been only minimally altered from its K-12 progenitor. To ensure the assay was reporting on compound accumulation, as opposed to non-specific affinity for the outer membrane, several control experiments were conducted. The assay method was evaluated with antibiotics that have known high or low levels of accumulation, based on published accumulation data and antibacterial activity against E. coli. […] Colistin is known to potentiate the activity of low-accumulating antibiotics by aiding the diffusion of lipophilic compounds across the membrane.
For each replicate, 2.5 mL of an overnight culture of E. coli was diluted into 250 mL of fresh Luria Bertani (LB) broth (Lennox) and grown at 37° C. with shaking to an OD600=0.55. The bacteria were pelleted at 3,220 rcf for 10 minutes at 4° C. and the supernatant was discarded. The pellets were re-suspended in 40 mL of phosphate buffered saline (PBS) and pelleted as before, and the supernatant was discarded. The pellets were re-suspended in 8.8 mL of fresh PBS and aliquoted into ten 1.5 mL eppendorf tubes (875 μL each). The number of colony forming units (CFUs) was determined via a calibration curve. The samples were equilibrated at 37° C. with shaking for 5 minutes, compound was added ([final]=50 μM), and then samples were incubated at 37° C. with shaking for 10 minutes. […] After incubation, 800 μL of the cultures were carefully layered on 700 μL of silicone oil (9:1 AR20/Sigma High Temperature, cooled to −78° C.). Bacteria were pelleted through the oil by centrifuging at 13,000 rcf for 2 minutes at room temperature (supernatant remains above the oil); the supernatant and oil were then removed by pipetting. To lyse the samples, each pellet was dissolved in 200 μL of water, and then they were subjected to three freeze-thaw cycle of three minutes in liquid nitrogen followed by three minutes in a water bath at 65° C. The lysates were pelleted at 13,000 rcf for 2 minutes at room temperature and the supernatant was collected (180 μL). The debris was re-suspended in 100 μL of methanol and pelleted as before. The supernatants were removed and combined with the previous supernatants collected. Finally, remaining debris was removed by centrifuging at 20,000 rcf for 10 minutes at room temperature. Supernatants were analyzed by LC-MS/MS.
Samples were analyzed with the 5500 QTRAP LC/MS/MS system (AB Sciex, Foster City, CA) with a 1200 series HPLC system (Agilent Technologies, Santa Clara, CA) including a degasser, an autosampler, and a binary pump. The LC separation was performed on an Agilent SB-Aq column (4.6×50 mm, 5 μm) (Agilent Technologies, Santa Clara, CA) with mobile phase A (0.1% formic acid in water) and mobile phase B (0.1% formic acid in acetonitrile). The flow rate was 0.3 mL/min. The linear gradient was as follows: 0-3 min, 100% A; 10-15 min, 2% A; 15.5-21 min, 100% A. The autosampler was set at 5° C. The injection volume was 15 μL. Mass spectra were acquired with both positive electrospray ionization (ESI) at the ion spray voltage of 5500 V and negative ESI at the ion spray voltage of −4500 V. The source temperature was 450° C. The curtain gas, ion source gas 1, and ion source gas 2 were 33, 50, and 65, respectively.

[2] = test system: E. coli MG1655; experiment: Antibiotic susceptibility test (microdilution broth), E. coli MG1655; assay type: cell-based, Escherichia coli; details: for MIC: Escherichia coli
Description: (§1) 6DNM and its derivatives were further evaluated against an expanded panel of Gram-negative pathogens, laboratory strains and clinical isolates of ESKAPE pathogens E. coli, Acinetobacter baumannii, Klebsiella pneumoniae, Enterobacter cloacae, and Pseudomonas aeruginosa (Table 1 of FIG. 19).
(§2) Susceptibility testing was performed in triplicate, using the microdilution broth method as outlined by the Clinical and Laboratory Standards Institute. Mueller Hinton (MH) broth was used.

[3] = test system: Staphylococcus aureus; experiment: Antibiotic susceptibility test (microdilution broth), S. aureus; assay type: cell-based
[4] = test system: E. coli, Acinetobacter baumannii, Klebsiella pneumoniae, Enterobacter cloacae, and Pseudomonas aeruginosa; experiment: Antibiotic susceptibility test (microdilution broth), expanded panel of Gram-negative pathogens; assay type: cell-based; details: for activity against expanded panel of Gram-negative pathogens (in words): laboratory strains and clinical isolates of ESKAPE pathogens
Description: as §1, §2

[5] = test system: ΔompR strain of E. coli (OmpF and OmpC knockout) vs parental E. coli BW25113
Description: A ΔompR strain of E. coli from the KEIO knockout collection was therefore chosen to effectively knockout both OmpF and OmpC (knockout was validated by analyzing the outer membrane proteins of the ΔompR strain compared to the parental strain, data not shown).

[6] = test system: E. coli (ATCC BAA-2469); experiment: Antibiotic susceptibility test (microdilution broth), NDM-1 producing E. coli clinical isolate; assay type: cell-based; details: Escherichia coli, ATCCBAA2469, read-out: MIC against multi-drug resistant NDM-1 producing E. coli ATCC BAA-2469
Description: as §1, §2

## CC(=O)NCC1COc2c3c(cc4c(C)cc(=O)n1c24)c(C)cc(=O)n3C (centres unmarked) [Compound 6DNM-amide]
[1]
  accumulation in E. coli (in words): do not accumulate
[2]
  activity against E. coli (in words): no activity

## Cc1cc(=O)n(C)c2c3c4c(cc12)c(C)cc(=O)n4C(CC(=O)O)CO3 (centres unmarked) [Compound 6DNM-acid]
[1]
  accumulation in E. coli (in words): do not accumulate
[2]
  activity against E. coli (in words): no activity

## Cc1cc(=O)n(C)c2c3c4c(cc12)c(C)cc(=O)n4CCO3 [Compound 6DNM]
[1]
  accumulation in E. coli: 298 nmol/10^12 CFUs
[3]; Staphylococcus aureus, microdilution broth, MH broth, read-out: MIC against Staphylococcus aureus
  MIC: 0.06 to 1 µg/mL (≈ 0.202 to 3.37 µM)
[2]; MG1655, read-out: MIC versus E. coli
  MIC: > 32 µg/mL
[4]
  activity against expanded panel of Gram-negative pathogens (in words): no notable activity

## CO[C@H]1/C=C/O[C@@]2(C)Oc3c(C)c(O)c4c(O)c(c(/C=N/N5CCN(C)CC5)c(O)c4c3C2=O)NC(=O)/C(C)=C\C=C\[C@H](C)[C@H](O)[C@@H](C)[C@@H](O)[C@@H](C)[C@H](OC(C)=O)[C@@H]1C [rifampicin, reference compound]
[1]
  accumulation upon co-treatment with colistin: increase in accumulation

## O=C(O)c1cn(C2CC2)c2cc(N3CCNCC3)c(F)cc2c1=O [ciprofloxacin, reference compound]
[1]; treatment for 10 minutes, 50 μM
  reduction of CFUs during accumulation assay (factor): five
[5]
  accumulation in ΔompR strain compared to parental/WT strain: significant decrease in accumulation

## Cc1cc(=O)n(C)c2c3c4c(cc12)c(C)cc(=O)n4C(CN)CO3 (centres unmarked) [Compound 6DNM-NH3]
[1]
  accumulation in E. coli: 1114 nmol/10^12 CFUs
[3]
  activity against S. aureus (in words): retains activity
[2]; MG1655, microdilution broth, MH broth, read-out: MIC against E. coli MG1655
  MIC: 0.5 µg/mL (≈ 1.54 µM)
[6]
  MIC: 4 µg/mL (≈ 12.3 µM)
[4]; clinical isolates
  activity against other clinical isolates of E. coli, A. baumannii, K. pneumonia, and E. cloacae (in words): good activity against most of the other clinical isolates
[4]
  activity against expanded panel of Gram-negative pathogens (in words): antibacterial activity against all of these Gram-negative pathogens except P. aeruginosa
[5]
  accumulation in ΔompR strain compared to parental/WT strain: decrease in accumulation

## CO[C@@H]1[C@@H](OC(N)=O)[C@@H](O)[C@H](Oc2ccc3c(O)c(NC(=O)c4ccc(O)c(CC=C(C)C)c4)c(=O)oc3c2C)OC1(C)C [novobiocin, reference compound]
[1]
  accumulation upon co-treatment with colistin: increase in accumulation

## NC1COC2C(O)COC12 (centres unmarked) [Compound 20, mono-amine isomannide]
[1]
  accumulation in E. coli (in words): does not accumulate
